As usually defined, the Ki is the dissociation constant of the complex between target and ligand, obtained from inhibition or displacement.

We go through five molecules from US5679673A (priority 1994, dated 1997).

Assay [1] has as its system sigma receptor. Conditions: de Costa et al, J. Med. Chem. 1989 and further structure activity studies; cited from earlier work.
A further assay concerns NMDA receptor. As to conditions: C. Carter et al, J. Pharm Exp. Ther., 1988; cited from earlier work.
In assay [2] the target is T1, sigma receptor (Cavia porcellus, UniProt Q60492).
T1 construct: crude synaptosomal (P2) membrane fraction of guinea pig brain; tissue Pel-Freeze (frozen guinea pig brains); host or cells: guinea pig brain minus cerebella, crude P2 membranes
T1 sequence (Q60492 whole entry): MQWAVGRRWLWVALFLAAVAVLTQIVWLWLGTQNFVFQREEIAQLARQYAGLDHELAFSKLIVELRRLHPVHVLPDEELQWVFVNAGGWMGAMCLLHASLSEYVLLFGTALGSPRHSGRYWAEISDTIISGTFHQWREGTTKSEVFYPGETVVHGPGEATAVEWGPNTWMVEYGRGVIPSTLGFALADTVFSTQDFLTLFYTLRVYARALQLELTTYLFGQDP
Put plainly: Radioreceptor assay: displacement of [3H](+)-pentazocine from guinea pig brain membranes. Format: binding. Conditions: [3H](+)-pentazocine 3 nM, guinea pig brain crude P2 membranes, pH 8.0, 120 min, 25° C.; average of 2-4 experiments; from IC50 by Cheng-Prusoff; read-out: Ki ([3H] (+) -Pent). (In general: In a radioligand displacement assay an active substance lowers the binding of a labelled ligand.)

Turning to `CN(CCc1ccc(Cl)c(Cl)c1)[C@@H]1CCCC[C@@H]1N1CCCC1` (single isomer, unassigned) [(-)-cis-N-[3,4-dichlorophenylethyl]-N-methyl-2-(1-pyrrolidinyl)-cyclohexylamine], in the assay on sigma receptor [1], the sigma receptor ligand entry is “extremely potent and selective ligands for the sigma receptor”. On to `CC(C(O)c1ccc(O)cc1)N1CCC(Cc2ccccc2)CC1` (centres unmarked) [ifenprodil], for which the NMDA receptor antagonism entry with NMDA receptor is reported as “non-competitive NMDA receptor antagonists”. As for `CN(CCc1ccc(Cl)c(Cl)c1)[C@@H]1CCCC[C@@H]1N1CCCC1` (single isomer, unassigned) [(+)-cis-N-[3,4-dichlorophenylethyl]-N-methyl-2-(1-pyrrolidinyl)-cyclohexylamine], the sigma receptor ligand entry in the assay on sigma receptor [1] is “extremely potent and selective ligands for the sigma receptor”. Take “1-(4-chlorophenyl)-2-[1-(4-fluorophenyl)-piperidinyl]ethanol”: in the assay with NMDA receptor, the NMDA receptor antagonism entry was “non-competitive NMDA receptor antagonists”. For the molecule `Clc1ccc(CCN2CCN3CCC2CC3)cc1Cl` [Compound of Ex. 5, 4-[2-(3,4-Dichlorophenyl)ethyl]-1,4-diazabicyclo[2.2.3]nonane], the inhibitory constant (Ki) on sigma receptor [2] worked out at 125 nM.
